ChEMBL document CHEMBL6177961, “Structure-Based Analysis of Semisynthetic Anti-TB Rufomycin Analogues” (J Nat Prod, 2025)
Values after ≈ are worked out from the molar mass of the structure shown.

Tests used:
[1] = system: Mycobacterium tuberculosis; assay: Antimycobacterial activity against Mycobacterium tuberculosis H37Rv ATCC 27294 assessed as reduction in bacterial growth by microplate alamar blue assay; type: functional
Mycobacterium avium = assay: Antimycobacterial activity against Mycobacterium avium assessed as reduction in bacterial growth; type: functional
[2] = system: Mycobacteroides abscessus; assay: Antimycobacterial activity against Mycobacterium abscessus ATCC 19977 assessed as reduction in bacterial growth by microplate Alamar blue assay; type: functional
[3] = Binding affinity to N-terminal Mycobacterium tuberculosis ClpC1 assessed as dissociation constant by SPR analysis
[4] = Binding affinity to full length Mycobacterium tuberculosis ClpC1 assessed as dissociation constant by SPR analysis
[5] = Cytotoxicity against African green monkey Vero cells; type: toxicity, cell-based; conditions: African green monkey (Chlorocebus sabaeus)
[6] = Selectivity index, ratio of IC50 for cytotoxicity against African green monkey Vero cells to MIC for antimycobacterial activity against Mycobacterium tuberculosis H37Rv ATCC 27294; type: toxicity, cell-based; conditions: read-out: Selectivity Index

Row | SMILES | MIC [1] [µM] | MIC (Mycobacterium avium) [µM] | MIC [2] [µM] | Kd [3] [µM] | Kd [4] [µM] | IC50 [5] [µM] | selectivity ratio [6]
1 | C/C=C/C[C@@H]1NC(=O)[C@H](CC(C)C)N2C(=O)[C@H](CC(C)[C@H]2OC)N(C)C(=O)[C@H](C)NC(=O)[C@H](Cc2ccc(O)c([N+](=O)[O-])c2)NC(=O)[C@H](CC(C)C)N(C)C(=O)[C@H](Cc2cn(C(C)(C)[C@H](O)COC)c3ccccc23)NC1=O (stereo partly specified) | 0.008 (≈ 0.00871 µg/mL) | 0.4 (≈ 0.435 µg/mL) | 0.11 (≈ 0.12 µg/mL) | 0.075 | 0.072 | > 100 | > 13000
2 | C/C=C/C[C@@H]1NC(=O)[C@H](CC(C)C)N2C(=O)[C@H](C[C@@H](C)[C@@H]2OCCCC)N(C)C(=O)[C@H](C)NC(=O)[C@H](Cc2ccc(O)c([N+](=O)[O-])c2)NC(=O)[C@H](CC(C)C)N(C)C(=O)[C@H](Cc2cn(C(C)(C)[C@H](O)CCl)c3ccccc23)NC1=O | 0.77 (≈ 0.874 µg/mL) | > 10 | 9.4 (≈ 10.7 µg/mL) | 0.6 | 0.72 | 95 | 120
3 | C/C=C/C[C@@H]1NC(=O)[C@H](CC(C)C)N2C=C(C)C[C@@H](C2=O)N(C)C(=O)[C@H](C)NC(=O)[C@H](Cc2ccc(O)c([N+](=O)[O-])c2)NC(=O)[C@H](CC(C)C)N(C)C(=O)[C@H](Cc2cn(C(C)(C)[C@H]3CO3)c3ccccc23)NC1=O | 0.003 (≈ 0.00307 µg/mL) | 4.1 (≈ 4.2 µg/mL) | 0.58 (≈ 0.594 µg/mL) | 0.05 | 0.06 | > 100 | > 33000
4 | C/C=C/C[C@@H]1NC(=O)[C@H](CC(C)C)N2C(=O)[C@H](CC(C)[C@H]2OC)N(C)C(=O)[C@H](C)NC(=O)[C@H](Cc2ccc(OC(C)=O)c([N+](=O)[O-])c2)NC(=O)[C@H](CC(C)C)N(C)C(=O)[C@H](Cc2cn(C(C)(C)[C@H]3CO3)c3ccccc23)NC1=O (stereo partly specified) | 0.001 (≈ 0.0011 µg/mL) | 0.14 (≈ 0.154 µg/mL) | 0.13 (≈ 0.143 µg/mL) | 0.04 | 0.044 | > 100 | > 71000
5 | C/C=C/C[C@@H]1NC(=O)[C@H](CC(C)C)N2C(=O)[C@H](CC(C)[C@H]2O)N(C)C(=O)[C@H](C)NC(=O)[C@H](Cc2ccc(OC)c([N+](=O)[O-])c2)NC(=O)[C@H](CC(C)C)N(C)C(=O)[C@H](Cc2cn(C(C)(C)[C@H]3CO3)c3ccccc23)N(C)C1=O (stereo partly specified) | 0.054 (≈ 0.0578 µg/mL) | 9 (≈ 9.63 µg/mL) | 0.58 (≈ 0.621 µg/mL) | 0.12 | 0.13 | > 100 | > 1900
6 | C/C=C/C[C@@H]1NC(=O)[C@H](CC(C)C)N2C=C(C)C[C@@H](C2=O)N(C)C(=O)[C@H](C)NC(=O)[C@H](Cc2ccc3oc(=O)[nH]c3c2)NC(=O)[C@H](CC(C)C)N(C)C(=O)[C@H](Cc2cn(C(C)(C)[C@H](O)CCl)c3ccccc23)NC1=O | 0.12 (≈ 0.127 µg/mL) | > 10 | 2.3 (≈ 2.43 µg/mL) | 0.43 | 0.51 | > 100 | > 830
7 | C/C=C/C[C@@H]1NC(=O)[C@H](CC(C)C)N2C(=O)[C@H](CC(C)[C@H]2OC)N(C)C(=O)[C@H](C)NC(=O)[C@H](Cc2ccc(OC)c([N+](=O)[O-])c2)NC(=O)[C@H](CC(C)C)N(C)C(=O)[C@H](Cc2cn(C(C)(C)[C@H](O)COC)c3ccccc23)NC1=O (stereo partly specified) | 0.023 (≈ 0.0254 µg/mL) | 4.5 (≈ 4.96 µg/mL) | 0.52 (≈ 0.573 µg/mL) | 0.037 | 0.04 | 83 | 3600
8 | C/C=C/C[C@@H]1NC(=O)[C@H](CC(C)C)N2C(=O)[C@H](C[C@@H](C)[C@H]2OCC)N(C)C(=O)[C@H](C)NC(=O)[C@H](Cc2ccc(O)c([N+](=O)[O-])c2)NC(=O)[C@H](CC(C)C)N(C)C(=O)[C@H](Cc2cn(C(C)(C)[C@H](O)CCl)c3ccccc23)NC1=O | 0.24 (≈ 0.266 µg/mL) | > 10 | 1.1 (≈ 1.22 µg/mL) | 0.12 | 0.14 | > 10 | > 42
